Structures can show the parent of a compound that is named as a salt.
Key:
[1] = target: T1, reuptake of dopamine (DA) in synaptosomes (Rattus norvegicus, UniProt P23977); assay: In vitro inhibition of dopamine reuptake in synaptosomes; format: biochemical
T1 construct: in synaptosomes as described in WO 97/16451; from tissue
Procedure: (§1) A number of compounds were tested for their ability to Inhibit the reuptake of the monoamine neurotransmitters dopamine (DA) noradrenaline(NA) and serotonin (5-HT) in synaptosomes as described in WO 97/16451.
(§2) The test values are given as IC50 (the concentration (μM) of the test substance which inhibits the specific binding of ^3H-DA, ^3H-NA, or 3H-5-HT by 50%).

[2] = target: T2, reuptake of serotonin (5-HT) in synaptosomes (Rattus norvegicus, UniProt P31652); assay: In vitro inhibition of serotonin reuptake in synaptosomes; format: biochemical
T2 construct: in synaptosomes as described in WO 97/16451; from tissue
Procedure: as §1, §2

T1 sequence (P23977 whole entry): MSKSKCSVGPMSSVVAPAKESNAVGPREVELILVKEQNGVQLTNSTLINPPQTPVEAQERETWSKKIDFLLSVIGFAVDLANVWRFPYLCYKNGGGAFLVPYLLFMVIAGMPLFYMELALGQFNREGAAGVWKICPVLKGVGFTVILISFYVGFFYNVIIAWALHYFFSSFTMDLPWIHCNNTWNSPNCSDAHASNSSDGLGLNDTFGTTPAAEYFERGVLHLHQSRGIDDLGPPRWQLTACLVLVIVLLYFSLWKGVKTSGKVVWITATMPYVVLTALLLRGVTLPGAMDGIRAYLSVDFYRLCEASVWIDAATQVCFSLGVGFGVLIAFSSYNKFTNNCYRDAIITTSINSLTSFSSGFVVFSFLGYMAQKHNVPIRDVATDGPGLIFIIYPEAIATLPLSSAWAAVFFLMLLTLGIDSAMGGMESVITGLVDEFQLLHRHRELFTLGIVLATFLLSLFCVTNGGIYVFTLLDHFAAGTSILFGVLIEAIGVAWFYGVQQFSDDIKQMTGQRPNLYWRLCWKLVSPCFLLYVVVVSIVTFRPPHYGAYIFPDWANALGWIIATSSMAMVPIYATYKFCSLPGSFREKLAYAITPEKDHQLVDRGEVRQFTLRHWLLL
T2 sequence (P31652 whole entry): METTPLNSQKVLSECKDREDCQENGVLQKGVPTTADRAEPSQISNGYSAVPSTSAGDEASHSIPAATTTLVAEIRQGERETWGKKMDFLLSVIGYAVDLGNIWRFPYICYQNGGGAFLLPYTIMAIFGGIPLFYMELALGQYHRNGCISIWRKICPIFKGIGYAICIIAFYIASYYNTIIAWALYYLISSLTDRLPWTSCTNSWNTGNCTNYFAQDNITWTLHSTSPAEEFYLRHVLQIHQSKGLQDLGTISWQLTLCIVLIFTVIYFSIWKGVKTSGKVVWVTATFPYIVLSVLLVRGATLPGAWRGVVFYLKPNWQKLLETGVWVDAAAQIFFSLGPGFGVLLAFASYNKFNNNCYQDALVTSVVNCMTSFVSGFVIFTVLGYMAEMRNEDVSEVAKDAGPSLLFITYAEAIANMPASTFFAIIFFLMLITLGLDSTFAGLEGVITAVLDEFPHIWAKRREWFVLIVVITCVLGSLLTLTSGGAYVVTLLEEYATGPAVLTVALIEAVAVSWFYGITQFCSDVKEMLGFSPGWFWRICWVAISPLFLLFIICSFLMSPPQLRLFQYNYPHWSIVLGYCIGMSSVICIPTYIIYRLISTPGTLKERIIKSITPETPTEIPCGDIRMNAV

Row | Compound | IC50 [1] | IC50 [2]
1 | CN1C2CCC1[C@H](COc1cccc(Cl)c1Cl)[C@@H](c1cccc(Cl)c1)C2 (stereo partly drawn) [1st compound of method D, (2R,3S)-2-(2,3-Dichlorophenoxymethyl)-8-methyl-3-(3-chlorophenyl)-8-aza-bicyclo[3.2.1]octane fumaric acid salt] | 62 nM | 0.72 nM
2 | Clc1cccc(C2CC3CCC(N3)C2COc2cccc(Cl)c2Cl)c1 [1st compound of method E, (2R,3S)-2-(2,3-Dichlorophenoxymethyl)-8-H-3-(3-chlorophenyl)-8-aza-bicyclo[3.2.1]octane fumaric acid salt] | 100 nM | 6.2 nM
3 | Clc1cccc(C2CC3CCC(N3)C2COc2cccc3ccccc23)c1 [2nd compound of method E, (2R,3S)-2-(1-naphthyloxymethyl)-8-H-3-(3-chlorophenyl)-8-aza-bicyclo[3.2.1]octane fumaric acid salt] | 88 nM | 13 nM
